# From patent US20110195982A1, “PREDICTIVE MARKER FOR EGFR INHIBITOR TREATMENT” (priority 2007, published 2011)
# How the values were obtained:
# [1] = patients with cancer, 150 mg/day; cited from earlier work
# [2] = doses that provide the targeted effective concentration; cited from earlier work
# NSCLC [3] = settings: single agent, after failure of standard therapy for advanced disease, versus placebo; cited from earlier work
# advanced NSCLC = test: open-label, predictive marker identification Phase II study of Tarceva monotherapy; assay type: in vivo, human
# Method: The selection of this dose was based on pharmacokinetic parameters, as well as the safety and tolerability profile of this dose observed in Phase I, II and III trials in heavily pre-treated patients with advanced cancer. Drug levels seen in the plasma of patients with cancer receiving the 150 mg/day dose were consistently above the average plasma concentration of 500 ng/ml targeted for clinical efficacy.
# This was an open-label, predictive marker identification Phase II study. The study was conducted in approximately 26 sites in about 12 countries. 264 patients with advanced NSCLC following failure of at least one prior chemotherapy regimen were enrolled over a 12 month period. […] Dose reductions were permitted based on tolerability to drug therapy. Clinical and laboratory parameters were assessed to evaluate disease control and toxicity. Treatment continued until disease progression, unacceptable toxicity or death. The study design is depicted in FIG. 1.
# The RECIST (Uni-dimensional Tumour Measurement) criteria were used to evaluate response. These criteria can be found under the following link: http://www.eortc.be/recist/
# Note that: To be assigned a status of CR or PR, changes in tumour measurements must be confirmed by repeated assessments at least 4 weeks apart at any time during the treatment period.
# In the case of SD, follow-up measurements must have met the SD criteria at least once after study entry at a minimum interval of 6 weeks.
# In the case of maintained SD, follow-up measurements must have met the SD criteria at least once after study entry with maintenance duration of at least 12 weeks.
# A regular status check every 3 months was performed either by a patient's visit to the clinic or by telephone. All deaths were recorded. At the end of the study a definitive confirmation of survival was required for each patient.
# NSCLC [4] = settings: second line after cisplatin-based first-line regimens, ECOG 0, 1 or 2, versus best supportive care; cited from earlier work
# NSCLC [5] = settings: second line therapy of NSCLC; cited from earlier work
# [6] = 75 patients with qRT-PCR results
# [7] = 102 patients with microarray data
# [8] = all 264 enrolled patients, 150 mg/day oral
# [9] = of the 102 patients with microarray data
compound,measurement,setting,value
"C#Cc1cccc(Nc2ncnc3cc(OCCOC)c(OCCOC)cc23)c1 [Tarceva, erlotinib]",drug levels in plasma,[1],> 500 ng/mL
same,safety and tolerability,[2],safe and generally well tolerated
same,survival of NSCLC patients,NSCLC [3],significantly prolongs and improves the survival
same,PD,advanced NSCLC; [6],52%
same,partial response (PR),advanced NSCLC; [6],5%
same,"Best Response SD, n (%)",advanced NSCLC; [7],31 (30.4%)
same,"Clinical Benefit YES, n (%)",advanced NSCLC; [7],21 (20.6%)
same,clinical benefit (objective response or stable disease for 12 weeks or more),advanced NSCLC; [8],31.4%
same,median overall survival,advanced NSCLC; [8],7.6 (CI 7-9) months
same,median progression-free survival,advanced NSCLC; [8],11.3 (CI 8-12) weeks
same,patients achieving an objective response,"advanced NSCLC; all 264 enrolled patients, 150 mg/day oral, RECIST",13.6%
same,number of partial responders (PR),advanced NSCLC; [9],6
same,number of patients with PD,advanced NSCLC; [9],49
same,number of patients with SD,advanced NSCLC; [9],31
same,patients achieving a CR,advanced NSCLC; [9],no patients achieving a CR
CC(=O)O[C@@]12CO[C@@H]1C[C@H](O)[C@@]1(C)C(=O)[C@H](O)C3=C(C)[C@@H](OC(=O)[C@H](O)[C@@H](NC(=O)OC(C)(C)C)c4ccccc4)C[C@@](O)([C@@H](OC(=O)c4ccccc4)[C@H]21)C3(C)C [docetaxel],survival,NSCLC [4],improved survival
Nc1nc2[nH]cc(CCc3ccc(C(=O)N[C@@H](CCC(=O)O)C(=O)O)cc3)c2c(=O)[nH]1 [pemetrexed],efficacy compared with docetaxel,NSCLC [5],clinically equivalent efficacy
same,side effects compared with docetaxel,NSCLC [5],significantly fewer side effects
